Measured values published in patent US20060089412A1, “Pharmaceutical composition for the treatment of non-alcoholic fatty liver disease” (AJINOMOTO CO. INC., priority 2004, published 2006).

Columns and labels:
[1] = Body weight in HFD-induced fatty liver rat model; type: in vivo, Male GK rats; conditions: for body weight increase compared with HFD alone: 6 weeks, HFD + drug versus HFD alone; for Body Weight, Pre: before feeding
Excerpt: Male GK rats (9 weeks of age, 6 rats per group) received HFD (containing 30% beef tallow) for 6 weeks.

[2] = test system: choline-deficient diet (CDD) rat model; experiment: Choline-deficient diet (CDD) rat model of NASH-like liver change; type: in vivo, Male Wistar rats; conditions: CDD mixed with 4% L-alanine for 4 weeks
Excerpt: Male Wistar rats (7 weeks of age, 5 rats per group) received CDD (Dyets Co.) for 4 weeks.
On the other hand, in the group of 5 rats received CDD mixed with 4% L-alanine for 4 weeks, one rat is normalized in liver weight (10.6 g).

[3] = test system: HFD-induced fatty liver rat model; experiment: Hepatic triglyceride contents in high-fat diet (HFD)-induced fatty liver rat model; type: in vivo, Male GK rats; conditions: diet mixed with 4% L-alanine for 6 weeks; one rat of 6, in the level of SD group
Procedure: It has been supposed that the increase of the amount of fat intake in the last few decades is one of the causes of the recent increase of the number of patients with NASH. Therefore, the effect of L-alanine on the hepatic triglyceride contents in the high-fat diet (hereinafter HFD)-induced fatty liver rat model.
Male GK rats (9 weeks of age, 6 rats per group) received HFD (containing 30% beef tallow) for 6 weeks. Triglyceride contents in the liver tissue was increased to 29.1 to 49.3 mg per gram of liver tissue, compared with those (14.1 to 24.2 mg) in the group fed with standard diet (containing 5% soy-been oil; hereinafter SD).
Pioglitazone is a drug, which acts as an insulin-sensitizer for the patients with diabetes. Recent clinical pilot studies raise the possibility of clinical utility of pioglitazone for NASH.
On the other hand, in the group of 6 rats received CDD mixed with 4% L-alanine for 6 weeks, one rat is reduced in the liver triglyceride contents (19.6 mg) in the level of SD group.

SMILES | body weight increase compared with HFD alone [1] | Body Weight, Pre ([1]; means ± SD (n = 6)) [g] | liver weight ([2]; one rat of 5 (normalized), CDD alone 14.5 to 20.0 g) [g] | histological fat accumulation in the liver ([2]; the one rat of 5 with normalized liver weight) | liver triglyceride contents [3] [mg] | Body Weight, Post (at 6 weeks) ([1]; after 6 weeks of HFD mixed with drug, means ± SD (n = 6)) [g]
CCc1ccc(CCOc2ccc(CC3SC(=O)NC3=O)cc2)nc1 (centres unmarked) [pioglitazone, reference compound] | significantly more increased | 222.1 ± 9.9 | – | – | – | –
C[C@H](N)C(=O)O [L-alanine] | not observed | 219.8 ± 13.0 | 10.6 | not recognized | 19.6 | 331.8 ± 20.5
